Data published in patent publication US7321027B2, “Small technetium-99m and rhenium labeled agents and methods for imaging tumors” (President and Fellows of Harvard College, priority 2000, dated 2008).

Assays:
B16/F0 murine melanoma = test: In-vivo tumor uptake and biodistribution; design: species or system C57B16 mice
Description: In-Vivo Tumor Uptake. To study the tumor uptake of ^99mTc-complexes, Tc-(Compound A-D and J-K), in vivo, biodistribution experiments at 1 h and 6 h after their administration were carried out in C57B16 mice with palpable B16 melanoma nodules. The biodistribution data including melanoma/nontumor (M/NT) ratios for selected organs are summarized in Table 4 and 5 as percentage injected dose per gram ([…]).
Animal Studies. All animal experiments were performed in compliance with the Principles of Laboratory Animal Care (NIH publication #85-23, revised 1985). Biodistribution studies and tumor-uptake measurements were performed in C57B16 mice (15 to 20 g) bearing the B16/F0 murine melanoma on the hind limb. See for example the studies described in, which are hereby incorporated by reference, Brandau, W.; Niehoff, T.; Pulawski, P.; Jonas, M.; Dutschka, K.; Sciuk, J.; Coenen, H. H.; Schober, O. Structure Distribution Relationship of Iodine-123-Iodobenzamides as Tracers for the Detection of Melanotic Melanoma. J. Nucl. Med. 1996, 37, 1865-1871; Mohanmmed, A.; Nicholl, C.; Titsch, U.; Eisenhut, M. Radiojodinated N-(Alkylaminoalkyl)-Substituted 4-Methoxy-, 4-Hydroxy-, and 4-Aminobenzamides: Biological Investigations for the Improvement of Melanoma-Imaging Agents. Nucl. Med. Biol. 1997, 24, 373-380; Titsch, U.; Mohammed, A.; Wagner, S.; Oberdorfer, F.; Eisenhut, M. Syntheses of N-(2-Diethylaminoethyl)benzamides Suitable for ^99mTc Complexation. J. Labelled Compd. Radiopharm. 1997, 40, 416-418; Dittmann, H.; Coenen, H. H.; Zölzer, F.; Dutschka, K.; Brandau, W.; Streffer, C. In Vitro Studies on the Cellular Uptake of Melanoma Imaging Aminoalkyl-iodobenzamide Derivatives (ABA). Nucl. Med. Biol. 1999, 26, 51-56; and Michelot, J. M.; Moreau, M. F. C.; Veyre, A. J.; Bonafous, J. F.; Bacin, F. J.; Madelmont, J. C.; Bussiere, F.; Souteyrand, P. A.; Mauclaire, L. P.; Chossat, F. M.; Papon, J. M.; Labarre, P. G.; Kauffmann, Ph.; Plagne, R. J. Phase II Scintigraphic Clinical Trial of Malignant Melanoma and Metastases with Iodine-123-N-(2-Diethylaminoethyl 4-Iodobenzamide). J. Nucl. Med. 1993, 34, 1260-1266. The tumor cells (B16/F0), obtained from ATCC, were washed with PBS and transplanted subcutaneously on the left hind flank by an inoculation of 0.5×10^6 cells (0.1 mL). Ten to 14 days later the animals developed palpable tumor nodules 3 to 5 mm in diameter. The biodistribution studies were carried out by tail-vein injection of 25 to 30 μCi (0.05 to 0.1 mL) of the ^99mTc-labeled complexes Tc-(Compound A-D, H, J, K or M). At the designated time after tail-vein administration, the animals were weighed and sacrificed. The organs and tumors were harvested and, when appropriate, blotted dry, weighed, and counted in a gamma counter along with technetium-99m standards of the injected dose. The results are expressed as % ID/g tissue (Table 4 and 5)

[1] = system: B16/F0 murine melanoma cells; test: In-vitro tumor-cell uptake, melanoma cells; format: cell-based; details: for % active: active part of in-vitro uptake, 37° C. vs 4° C.
Description: In-Vitro Tumor-Uptake Studies. Tumor-cell uptake studies in B16/F0 murine melanoma cells were performed with complexes Tc-(Compound A-D and H-M) at 37° C. and 4° C. Additionally, tumor-cell uptake of complex Tc-(Compound A) was investigated in another rapidly dividing MCF-7 human breast cancer cell line.
In-Vitro Cell Studies. Murine B16/F0 melanoma cells and human MCF-7 breast cancer cells were obtained from American Type Culture Collection, Manassas Va., (ATCC) and were grown in T-175 flasks in 14 mL Dulbecco's Modified Eagle Medium (D-MEM; Gibco, Life Technology, Gaithersburg, Md.) containing 4500 mg/L D-glucose, L-glutamine, and pyridoxine hydrochloride, 110 mg/L sodium pyruvate, 10% fetal bovine serum (FBS), 0.2% gentamicin and 0.5% penicillin-streptomycin solution. All cells were harvested from cell culture flasks by trypsinization with 1 mL trypsin-EDTA solution (0.25% trypsin, 1 mM EDTA×4 Na) (Gibco). After being washed with 12 mL Dulbecco's Phosphate-Buffered Saline (PBS) (Gibco), pH 7.2 (Ca^2+- and Mg^2+-free; g/L KCl, 0.20; KH2PO4, 0.20; NaCl, 8.00; Na2HPO4, 1.15), the cells were counted and resuspended in 8 mL S-MEM (Gibco) (Ca^2+ free, with reduced Mg^2+ content) and stored at 4° C. until use.
For in-vitro tumor-cell accumulation studies, 5×10^6 cells in polypropylene test tubes were incubated at 37° C. or 4° C., with intermittent agitation with 1-2 μCi (5 μL) ^99mTc-complex Tc-(Compound A-D) in a total volume of 350 μL S-MEM. At appropriate time intervals the tubes were vortexed and 8-μL samples were layered on 350 μL cold FBS in a 400-μL Eppendorf microcentrifuge tube. After centrifugation at 15,000 rpm for 2 min, the tubes were frozen in a dry ice-acetone bath. While still frozen, the bottom tip of the microcentrifuge tube containing the cell pellet was cut and placed in a counting tube. The remaining portion of the tube with the supernatant was placed in a separate counting tube. Both fractions were counted for radioactivity in a γ-counter (WALLAC, 1480 WIZARD 3″™). The amount of supernatant in the cell pellet was determined to be <1% in separate experiments. The percentage cell uptake of the ^99mTc-complex was calculated as: % uptake=[cpm(pellet)]/[cpm(pellet)+cpm(supernatant)]×100

## CCN(CC)CCN(CCSC(c1ccccc1)(c1ccccc1)c1ccccc1)CC(=O)NCCSC(c1ccccc1)(c1ccccc1)c1ccccc1 [Compound A, N-[(2-diethylaminoethyl)-N-(2-(2-(S-(triphenyl-methyl)thio)ethyl)amino)acetyl]-S-(triphenylmethyl)-2-aminoethane-thiol]
B16/F0 murine melanoma; mouse, in vivo
  In-vivo M/Blood: 7.6
  In-vivo M/Lung: 5.4
  In-vivo M/Spleen: 4.2
[1]
  % Tumor uptake (In-vitro, 60 min) 4° C.: 33 ± 2.4%
  % Tumor uptake (In-vitro, 60 min) 37° C.: 44 ± 1.6%
  % active: 25%

## CCCCN(CCCC)CCN(CCSC(c1ccccc1)(c1ccccc1)c1ccccc1)CC(=O)NCCSC(c1ccccc1)(c1ccccc1)c1ccccc1 [Compound B, N-[(2-dibutylaminoethyl)-N-(2-(2-(S-(triphenylmethyl)thio)ethyl)amino)-acetyl]-S-(triphenylmethyl)-2-aminoethanethiol]
B16/F0 murine melanoma; mouse, in vivo
  In-vivo M/Blood: 7.6
  In-vivo M/Lung: 2.1
  In-vivo M/Spleen: 4.0
[1]
  % Tumor uptake (In-vitro, 60 min) 4° C.: 16 ± 1.3%
  % Tumor uptake (In-vitro, 60 min) 37° C.: 8 ± 1.9%

## CCN(CC)CCCN(CCSC(c1ccccc1)(c1ccccc1)c1ccccc1)CC(=O)NCCSC(c1ccccc1)(c1ccccc1)c1ccccc1 [Compound C, N-[(3-diethylaminopropyl)-N-(2-(2-(S-(triphenylmethyl)thio)ethyl)amino)-acetyl]-S-(triphenylmethyl)-2-aminoethanethiol]
B16/F0 murine melanoma; mouse, in vivo
  In-vivo M/Blood: 7.7
  In-vivo M/Lung: 2.4
  In-vivo M/Spleen: 3.0
[1]
  % Tumor uptake (In-vitro, 60 min) 4° C.: 17 ± 1.5%
  % Tumor uptake (In-vitro, 60 min) 37° C.: 62 ± 0.8%
  % active: 73%

## CCCCN(CCCC)CCCN(CCSC(c1ccccc1)(c1ccccc1)c1ccccc1)CC(=O)NCCSC(c1ccccc1)(c1ccccc1)c1ccccc1 [Compound D, N-[(3-dibutylaminopropyl)-N-(2-(2-(S-(triphenylmethyl)thio)ethyl)amino)-acetyl]-S-(triphenylmethyl)-2-aminoethanethiol]
B16/F0 murine melanoma; mouse, in vivo
  In-vivo M/Blood: 4.3
  In-vivo M/Lung: 1.5
  In-vivo M/Spleen: 1.4
[1]
  % Tumor uptake (In-vitro, 60 min) 4° C.: 56 ± 2.7%
  % Tumor uptake (In-vitro, 60 min) 37° C.: 68 ± 2.3%
  % active: 18%

## CCN(CC)CCNC(=O)c1ccc(I)cc1 [IBZA, reference compound]
B16/F0 murine melanoma; 60 min
  In-vivo Tumor uptake, Melanoma: 5.5 % I.D./g
B16/F0 murine melanoma; melanoma/blood ratio, 60 min
  In-vivo M/Blood: 8
B16/F0 murine melanoma; melanoma/lung ratio, 60 min
  In-vivo M/Lung: <1
B16/F0 murine melanoma; melanoma/spleen ratio, 60 min
  In-vivo M/Spleen: 1
[1]
  % Tumor uptake (In-vitro, 60 min) 4° C.: 28 ± 1.4%
  % Tumor uptake (In-vitro, 60 min) 37° C.: 26 ± 1.4%

## O=C1CN(CCN2CCCCC2)CC[S][99Tc]2(=[O])[S]CC[N]12 (stereo not shown) [^99mTc-Compound J]
B16/F0 murine melanoma; 1 h post-injection
  biodistribution blood: 2.26 % ID/g
  biodistribution brain: 0.52 % ID/g
  biodistribution heart: 0.91 % ID/g
  biodistribution kidney: 4.26 % ID/g
  biodistribution liver: 14.9 % ID/g
  biodistribution lung: 2.50 % ID/g
  biodistribution melanoma: 5.26 % ID/g
  biodistribution muscle: 0.42 % ID/g
  biodistribution spleen: 3.28 % ID/g
  mel/blood ratio: 2.3
  mel/liver ratio: <1
  mel/lung ratio: 2.1
  mel/spleen ratio: 1.6
B16/F0 murine melanoma; 6 h post-injection
  biodistribution blood: 0.20 % ID/g
  biodistribution brain: 0.05 % ID/g
  biodistribution heart: 0.26 % ID/g
  biodistribution kidney: 2.31 % ID/g
  biodistribution liver: 4.62 % ID/g
  biodistribution lung: 0.31 % ID/g
  biodistribution melanoma: 3.33 % ID/g
  biodistribution muscle: 0.15 % ID/g
  biodistribution spleen: 0.20 % ID/g
  mel/blood ratio: 16.7
  mel/liver ratio: <1
  mel/lung ratio: 10.7
  mel/spleen ratio: 16.7
